Common to all, as to assay: relative viability (nuclei count vs DMSO), 5 days (fraction); higher = more cells survive
Compound in experiment [1]: CC1=CC=C(C=C1)C(=O)CN2C3=C(CCCC3)SC2=N [Pifithrin_alpha] + C[C@@H](Oc1cc(-c2cnn(C3CCNCC3)c2)cnc1N)c1c(Cl)ccc(F)c1Cl [Crizotinib] (partner 1 µM)
The procedure, abridged:
(§1)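 Medians of duplicate plates are given as relative viability. That measure is the nuclei count in treated wells divided by the count in vehicle wells. Counts were taken on 4× images of lung cancer cell lines in 1536-well plates, 5 days after pin-tool dosing the day after seeding with one drug alone or a fixed anchor-drug dose plus five library-drug doses (not always all listed) in √10 steps.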

Compound in experiment [2]: CC1=CC=C(C=C1)C(=O)CN2C3=C(CCCC3)SC2=N [Pifithrin_alpha] + C[C@]1(O)C[C@@H](c2nc(-c3ccc4ccc(-c5ccccc5)nc4c3)c3c(N)nccn32)C1 [Linsitinib] (partner 1 µM)
The procedure, abridged:
as §1

Compound in experiment [3]: CC1=CC=C(C=C1)C(=O)CN2C3=C(CCCC3)SC2=N [Pifithrin_alpha] + Cc1nc(NC(=O)N2CCC[C@H]2C(N)=O)sc1-c1ccnc(C(C)(C)C(F)(F)F)c1 [Alpelisib] (partner 2 µM)
The procedure, abridged: as §1

Compound in experiment [4]: CC1=CC=C(C=C1)C(=O)CN2C3=C(CCCC3)SC2=N [Pifithrin_alpha] + O=C(c1cc(Cc2n[nH]c(=O)c3ccccc23)ccc1F)N1CCN(C(=O)C2CC2)CC1 [Olaparib] (partner 8 µM)
In short, it runs like this:
as §1

This is an account of results in the supplement of paper PMC10307832.

Turning to NCI-H647, the relative viability in experiment [1] (first compound 1 µM) was determined as 0.838; in experiment [1] (first compound 3.162 µM), 1.03; in experiment [1] (first compound 10 µM) it was 0.927; in experiment [1] (first compound 100 µM) it was 0.605; in experiment [2] (first compound 1 µM) it was 1.27; in experiment [2] (first compound 3.162 µM), 1.2. Besides, the relative viability is 1.02 in experiment [2] (first compound 10 µM); 0.748 in experiment [2] (first compound 100 µM); 1.07 in experiment [3] (first compound 1 µM); 1.06 in experiment [3] (first compound 3.162 µM); 0.992 in experiment [3] (first compound 10 µM); 0.736 in experiment [3] (first compound 100 µM). Further, the relative viability in experiment [4] (first compound 1 µM) stood at 0.531; in experiment [4] (first compound 3.162 µM), 0.44; in experiment [4] (first compound 10 µM), 0.531; in experiment [4] (first compound 31.62 µM), 0.217; in experiment [4] (first compound 100 µM), 0.492.
For NCI-H661, the relative viability in experiment [1] (first compound 1 µM) came to 1.16; in experiment [1] (first compound 3.162 µM), 0.93; in experiment [1] (first compound 10 µM), 0.908; in experiment [1] (first compound 31.62 µM) it was 1.17; in experiment [1] (first compound 100 µM), 0.988; in experiment [2] (first compound 1 µM), 0.669. Further, the relative viability in experiment [2] (first compound 3.162 µM) came out at 0.616; in experiment [2] (first compound 10 µM), 0.565; in experiment [2] (first compound 31.62 µM), 0.68; in experiment [2] (first compound 100 µM), 0.598; in experiment [3] (first compound 1 µM) it was 0.528; in experiment [3] (first compound 3.162 µM), 0.552. Further, the relative viability in experiment [3] (first compound 10 µM) came to 0.623; in experiment [3] (first compound 31.62 µM), 0.63; in experiment [3] (first compound 100 µM), 0.73; in experiment [4] (first compound 1 µM), 0.777; in experiment [4] (first compound 3.162 µM), 0.882; in experiment [4] (first compound 10 µM) it was 0.656. Moreover, the figures for the relative viability in experiment [4] (first compound 31.62 µM) and in experiment [4] (first compound 100 µM) were 0.601 and 0.669, respectively.
On to NCI-H727, for which the relative viability in experiment [1] (first compound 1 µM) turned out to be 0.789; in experiment [1] (first compound 3.162 µM) it was 0.78; in experiment [1] (first compound 10 µM) it was 0.823; in experiment [1] (first compound 31.62 µM), 0.556; in experiment [1] (first compound 100 µM) it was 0.673; in experiment [2] (first compound 1 µM) it was 0.295. Also, the relative viability in experiment [2] (first compound 3.162 µM) is 0.312; in experiment [2] (first compound 10 µM) it was 0.271; in experiment [2] (first compound 31.62 µM), 0.293; in experiment [2] (first compound 100 µM) it was 0.217; in experiment [3] (first compound 1 µM), 0.55; in experiment [3] (first compound 3.162 µM), 0.533. Also, the relative viability was determined as 0.512 in experiment [3] (first compound 10 µM); 0.415 in experiment [3] (first compound 31.62 µM); 0.492 in experiment [3] (first compound 100 µM); 0.71 in experiment [4] (first compound 1 µM); 0.843 in experiment [4] (first compound 3.162 µM); 0.68 in experiment [4] (first compound 10 µM). Also, the relative viability is 0.583 in experiment [4] (first compound 31.62 µM) and 0.597 in experiment [4] (first compound 100 µM).
As to NCI-H838, the relative viability turned out to be 0.829 in experiment [1] (first compound 1 µM); 0.746 in experiment [1] (first compound 3.162 µM); 0.667 in experiment [1] (first compound 10 µM); 0.496 in experiment [1] (first compound 31.62 µM); 0.625 in experiment [1] (first compound 100 µM); 0.96 in experiment [2] (first compound 1 µM). In addition, the relative viability in experiment [2] (first compound 3.162 µM) amounted to 0.888; in experiment [2] (first compound 10 µM), 0.853; in experiment [2] (first compound 31.62 µM), 0.735; in experiment [2] (first compound 100 µM), 0.782; in experiment [3] (first compound 1 µM), 0.909; in experiment [3] (first compound 3.162 µM) it was 0.834. Further, the relative viability in experiment [3] (first compound 10 µM) was 0.812; in experiment [3] (first compound 31.62 µM), 0.694; in experiment [3] (first compound 100 µM), 0.733; in experiment [4] (first compound 1 µM), 0.723; in experiment [4] (first compound 3.162 µM) it was 0.505; in experiment [4] (first compound 10 µM), 0.469. Moreover, the relative viability in experiment [4] (first compound 31.62 µM) worked out at 0.363; in experiment [4] (first compound 100 µM) it was 0.534.
As to NCI-H1299, the relative viability in experiment [1] (first compound 1 µM) is 0.997; in experiment [1] (first compound 3.162 µM) it was 0.992; in experiment [1] (first compound 10 µM) it was 1.05; in experiment [1] (first compound 31.62 µM), 0.76; in experiment [1] (first compound 100 µM) it was 0.897; in experiment [2] (first compound 1 µM), 1.04. Further, the relative viability in experiment [2] (first compound 3.162 µM) stood at 1.09; in experiment [2] (first compound 10 µM), 1.01; in experiment [2] (first compound 31.62 µM), 0.813; in experiment [2] (first compound 100 µM), 0.998; in experiment [3] (first compound 1 µM), 1.1; in experiment [3] (first compound 3.162 µM) it was 1.09. The relative viability was found to be 1.07 in experiment [3] (first compound 10 µM); 0.874 in experiment [3] (first compound 31.62 µM); 1.18 in experiment [3] (first compound 100 µM); 0.964 in experiment [4] (first compound 1 µM); 1 in experiment [4] (first compound 3.162 µM); 0.985 in experiment [4] (first compound 10 µM). Moreover, the relative viability worked out at 0.514 in experiment [4] (first compound 31.62 µM) and 0.794 in experiment [4] (first compound 100 µM).
Turning to NCI-H1355, the relative viability in experiment [1] (first compound 1 µM) was 0.995; in experiment [1] (first compound 3.162 µM), 0.734; in experiment [1] (first compound 10 µM), 0.62; in experiment [1] (first compound 31.62 µM), 0.619; in experiment [1] (first compound 100 µM) it was 0.733; in experiment [2] (first compound 1 µM), 0.753. For the same cell line, the relative viability in experiment [2] (first compound 3.162 µM) was determined as 0.666; in experiment [2] (first compound 10 µM), 0.599; in experiment [2] (first compound 31.62 µM) it was 0.605; in experiment [2] (first compound 100 µM), 0.599; in experiment [3] (first compound 1 µM) it was 0.732; in experiment [3] (first compound 3.162 µM), 0.587. Also, the relative viability in experiment [3] (first compound 10 µM) was found to be 0.559; in experiment [3] (first compound 31.62 µM), 0.489; in experiment [3] (first compound 100 µM), 0.591; in experiment [4] (first compound 1 µM) it was 0.653; in experiment [4] (first compound 3.162 µM), 0.52; in experiment [4] (first compound 10 µM), 0.413. For the same cell line, the relative viability in experiment [4] (first compound 31.62 µM) worked out at 0.442; in experiment [4] (first compound 100 µM) it was 0.345.
